ChEMBL document CHEMBL4130345, “Discovery of a series of dihydroquinoxalin-2(1H)-ones as selective BET inhibitors from a dual PLK1-BRD4 inhibitor” (Eur J Med Chem, 2017)

Columns and labels:
[1] = molecular target: T1, Bromodomain-containing protein 4 (Homo sapiens, UniProt O60885); experiment: Inhibition of BRD4 in human TY82 cells assessed as downregulation of c-Myc mRNA expression after 24 hrs by RT-qPCR method; format: cell-based
[2] = molecular target: T1, Bromodomain-containing protein 4; experiment: Inhibition of BRD4 in human TY82 cells assessed as downregulation of c-Myc mRNA expression at 1 uM after 24 hrs by RT-qPCR method relative to control; format: cell-based
[3] = Cmax in ICR (CD-1) mouse at 10 mg/kg, po; format: ADME, organism-based; set-up: dose 10 mg/kg, route oral; details: in vivo
[4] = AUC (0 to t) in ICR (CD-1) mouse at 10 mg/kg, po; format: ADME, organism-based; details: in vivo
[5] = AUC (0 to infinity) in ICR (CD-1) mouse at 10 mg/kg, po; format: ADME, organism-based; set-up: dose 10 mg/kg, time infinity, route oral; details: in vivo
[6] = molecular target: ATPase family AAA domain-containing protein 2 (Homo sapiens) (UniProt Q6PL18); experiment: Inhibition of human partial length ATAD2A (Q981 to R1108 residues) expressed in Escherichia coli BL21 assessed as residual activity at 1 uM after 1 hr by qPCR method relative to control
ATPase family AAA domain-containing protein 2 (Homo sapiens), sequence (Q6PL18 whole entry, the tested form may be a part): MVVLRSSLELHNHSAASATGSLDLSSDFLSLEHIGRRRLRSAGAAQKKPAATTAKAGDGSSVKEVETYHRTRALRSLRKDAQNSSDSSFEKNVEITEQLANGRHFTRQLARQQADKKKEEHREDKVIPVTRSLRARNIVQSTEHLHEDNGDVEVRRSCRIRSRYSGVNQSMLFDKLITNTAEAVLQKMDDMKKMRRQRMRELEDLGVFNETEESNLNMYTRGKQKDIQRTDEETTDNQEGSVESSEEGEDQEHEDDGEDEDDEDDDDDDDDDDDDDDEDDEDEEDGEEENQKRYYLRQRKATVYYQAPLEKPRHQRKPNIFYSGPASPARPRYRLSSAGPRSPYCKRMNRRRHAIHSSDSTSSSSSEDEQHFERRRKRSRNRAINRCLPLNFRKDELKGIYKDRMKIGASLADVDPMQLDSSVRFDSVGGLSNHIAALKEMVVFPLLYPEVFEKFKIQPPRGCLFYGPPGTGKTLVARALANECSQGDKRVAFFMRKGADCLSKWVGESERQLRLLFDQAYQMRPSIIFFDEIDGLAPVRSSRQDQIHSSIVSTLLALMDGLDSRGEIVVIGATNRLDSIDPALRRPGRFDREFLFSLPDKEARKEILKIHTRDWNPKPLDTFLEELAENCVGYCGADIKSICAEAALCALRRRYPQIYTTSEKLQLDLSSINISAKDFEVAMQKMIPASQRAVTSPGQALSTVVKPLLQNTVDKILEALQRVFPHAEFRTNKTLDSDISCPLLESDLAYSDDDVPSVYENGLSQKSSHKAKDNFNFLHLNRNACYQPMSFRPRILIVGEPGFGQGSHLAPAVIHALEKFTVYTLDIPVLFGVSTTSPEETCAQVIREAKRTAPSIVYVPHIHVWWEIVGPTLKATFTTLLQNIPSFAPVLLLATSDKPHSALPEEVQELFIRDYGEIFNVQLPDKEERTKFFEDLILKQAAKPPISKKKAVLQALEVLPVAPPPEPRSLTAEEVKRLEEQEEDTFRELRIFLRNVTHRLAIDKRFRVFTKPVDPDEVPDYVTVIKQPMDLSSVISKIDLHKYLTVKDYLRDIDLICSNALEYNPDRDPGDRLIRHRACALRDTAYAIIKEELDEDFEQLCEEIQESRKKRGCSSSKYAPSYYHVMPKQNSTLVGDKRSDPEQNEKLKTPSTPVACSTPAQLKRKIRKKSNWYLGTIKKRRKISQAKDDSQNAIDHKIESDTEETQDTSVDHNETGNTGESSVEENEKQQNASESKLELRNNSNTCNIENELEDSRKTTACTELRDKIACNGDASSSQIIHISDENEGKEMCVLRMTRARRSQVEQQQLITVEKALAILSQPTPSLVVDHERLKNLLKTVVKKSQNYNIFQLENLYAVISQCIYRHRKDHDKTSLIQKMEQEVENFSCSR

[7] = molecular target: ATPase family AAA domain-containing protein 2B (Homo sapiens) (UniProt Q9ULI0); experiment: Inhibition of human partial length ATAD2B (Q955 to R1082 residues) expressed in Escherichia coli BL21 assessed as residual activity at 1 uM after 1 hr by qPCR method relative to control
[8] = molecular target: Bromodomain adjacent to zinc finger domain protein 2B (Homo sapiens) (UniProt Q9UIF8); experiment: Inhibition of human partial length BAZ2B (S2054 to S2168 residues) expressed in Escherichia coli BL21 assessed as residual activity at 1 uM after 1 hr by qPCR method relative to control
[9] = molecular target: Bromodomain-containing protein 2 (Homo sapiens) (UniProt P25440); experiment: Inhibition of human partial length BRD2 bromodomain 1 long isoform (K71 to N194 residues) expressed in Escherichia coli BL21 assessed as residual activity at 1 uM after 1 hr by qPCR method relative to control
Bromodomain-containing protein 2 (Homo sapiens), sequence (P25440 whole entry, looked up, the tested form may be a part, canonical isoform): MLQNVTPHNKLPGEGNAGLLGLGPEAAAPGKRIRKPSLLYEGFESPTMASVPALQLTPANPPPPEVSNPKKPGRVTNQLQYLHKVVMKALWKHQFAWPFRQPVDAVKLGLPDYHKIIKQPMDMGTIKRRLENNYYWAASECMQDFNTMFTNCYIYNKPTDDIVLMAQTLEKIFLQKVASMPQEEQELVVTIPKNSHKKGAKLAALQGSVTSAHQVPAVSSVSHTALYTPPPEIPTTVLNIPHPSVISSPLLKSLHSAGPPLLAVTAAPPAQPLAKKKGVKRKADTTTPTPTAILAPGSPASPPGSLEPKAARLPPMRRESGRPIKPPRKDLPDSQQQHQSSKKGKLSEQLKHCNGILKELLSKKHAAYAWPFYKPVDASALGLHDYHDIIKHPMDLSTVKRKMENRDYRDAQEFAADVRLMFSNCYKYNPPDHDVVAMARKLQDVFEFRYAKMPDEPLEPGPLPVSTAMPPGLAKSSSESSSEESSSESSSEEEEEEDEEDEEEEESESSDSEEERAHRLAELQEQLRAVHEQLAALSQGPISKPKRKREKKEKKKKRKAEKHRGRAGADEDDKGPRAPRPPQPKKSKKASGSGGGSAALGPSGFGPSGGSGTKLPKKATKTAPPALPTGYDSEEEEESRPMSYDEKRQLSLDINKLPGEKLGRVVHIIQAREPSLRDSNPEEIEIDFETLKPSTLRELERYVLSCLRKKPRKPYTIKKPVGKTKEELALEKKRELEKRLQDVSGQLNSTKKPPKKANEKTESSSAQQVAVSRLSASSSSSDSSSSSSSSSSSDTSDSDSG

[10] = molecular target: Bromodomain-containing protein 2 (Homo sapiens) (UniProt P25440); experiment: Inhibition of human partial length BRD2 bromodomain 2 isoform 1 (E348 to D455 residues) expressed in Escherichia coli BL21 assessed as residual activity at 1 uM after 1 hr by qPCR method relative to control
[11] = molecular target: Bromodomain-containing protein 3 (Homo sapiens) (UniProt Q15059); experiment: Inhibition of human partial length BRD3 bromodomain 1 (P24 to E144 residues) expressed in Escherichia coli BL21 assessed as residual activity at 1 uM after 1 hr by qPCR method relative to control
[12] = molecular target: T1, Bromodomain-containing protein 4; experiment: Inhibition of human partial length BRD4 bromodomain 1 long isoform (N44 to E168 residues) expressed in Escherichia coli BL21 assessed as residual activity at 1 uM after 1 hr by qPCR method relative to control
[13] = molecular target: T1, Bromodomain-containing protein 4; experiment: Inhibition of human partial length BRD4 bromodomain 2 long isoform (K333 to E460 residues) expressed in Escherichia coli BL21 assessed as residual activity at 1 uM after 1 hr by qPCR method relative to control
[14] = molecular target: Bromodomain-containing protein 7 (Homo sapiens) (UniProt Q9NPI1); experiment: Inhibition of human partial length BRD7 (L125 to R254 residues) expressed in mammalian expression system assessed as residual activity at 1 uM after 1 hr by qPCR method relative to control
Bromodomain-containing protein 7 (Homo sapiens), sequence (Q9NPI1 whole entry, the tested form may be a part): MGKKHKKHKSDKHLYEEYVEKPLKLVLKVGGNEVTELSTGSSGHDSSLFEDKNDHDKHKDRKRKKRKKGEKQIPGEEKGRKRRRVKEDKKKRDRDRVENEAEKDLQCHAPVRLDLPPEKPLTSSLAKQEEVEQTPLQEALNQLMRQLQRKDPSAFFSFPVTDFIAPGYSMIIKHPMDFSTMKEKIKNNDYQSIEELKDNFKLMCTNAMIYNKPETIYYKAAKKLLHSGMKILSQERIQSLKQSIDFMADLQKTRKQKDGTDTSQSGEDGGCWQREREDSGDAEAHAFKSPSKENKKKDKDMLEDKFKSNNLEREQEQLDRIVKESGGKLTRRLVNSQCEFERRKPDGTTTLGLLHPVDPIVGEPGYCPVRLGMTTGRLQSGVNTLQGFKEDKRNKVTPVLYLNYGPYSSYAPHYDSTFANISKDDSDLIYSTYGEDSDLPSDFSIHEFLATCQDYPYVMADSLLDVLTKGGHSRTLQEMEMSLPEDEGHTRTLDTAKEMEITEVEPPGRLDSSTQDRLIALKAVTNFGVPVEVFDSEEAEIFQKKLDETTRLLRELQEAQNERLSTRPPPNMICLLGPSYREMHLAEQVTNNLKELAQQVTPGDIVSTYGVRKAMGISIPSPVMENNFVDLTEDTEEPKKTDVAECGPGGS

[15] = molecular target: Bromodomain testis-specific protein (Homo sapiens) (UniProt Q58F21); experiment: Inhibition of human partial length BRDT bromodomain 2 (K250 to E382 residues) expressed in Escherichia coli BL21 assessed as residual activity at 1 uM after 1 hr by qPCR method relative to control
Peregrin (Homo sapiens) = Peregrin (Homo sapiens) (UniProt P55201); experiment: Inhibition of human partial length BRPF1 (E627 to G740 residues) expressed in Escherichia coli BL21 assessed as residual activity at 1 uM after 1 hr by qPCR method relative to control
[16] = molecular target: Bromodomain and PHD finger-containing protein 3 (Homo sapiens) (UniProt Q9ULD4); experiment: Inhibition of human partial length BRPF3 (E588 to G701 residues) expressed in Escherichia coli BL21 assessed as residual activity at 1 uM after 1 hr by qPCR method relative to control
[17] = molecular target: CREB-binding protein (Homo sapiens) (UniProt Q92793); experiment: Inhibition of human partial length CREBBP (R1081 to G1197 residues) expressed in Escherichia coli BL21 assessed as residual activity at 1 uM after 1 hr by qPCR method relative to control
[18] = molecular target: Histone acetyltransferase p300 (Homo sapiens) (UniProt Q09472); experiment: Inhibition of human partial length EP300 (A1040 to G1161 residues) expressed in Escherichia coli BL21 assessed as residual activity at 1 uM after 1 hr by qPCR method relative to control
[19] = molecular target: Histone acetyltransferase KAT2A (Homo sapiens) (UniProt Q92830); experiment: Inhibition of human partial length GCN5L2 (E726 to K837 residues) expressed in Escherichia coli BL21 assessed as residual activity at 1 uM after 1 hr by qPCR method relative to control
[20] = molecular target: Protein polybromo-1 (Homo sapiens) (UniProt Q86U86); experiment: Inhibition of human partial length PBRM1 bromodomain 2 (S178 to E291 residues) expressed in Escherichia coli BL21 assessed as residual activity at 1 uM after 1 hr by qPCR method relative to control
[21] = molecular target: Histone acetyltransferase KAT2B (Homo sapiens) (UniProt Q92831); experiment: Inhibition of human partial length PCAF (G715 to D831 residues) expressed in Escherichia coli BL21 assessed as residual activity at 1 uM after 1 hr by qPCR method relative to control
[22] = molecular target: SWI/SNF-related matrix-associated actin-dependent regulator of chromatin subfamily A member 4 (Homo sapiens) (UniProt P51532); experiment: Inhibition of human partial length SMARCA4 (A1448 to S1575 residues) expressed in Escherichia coli BL21 assessed as residual activity at 1 uM after 1 hr by qPCR method relative to control
SWI/SNF-related matrix-associated actin-dependent regulator of chromatin subfamily A member 4 (Homo sapiens), sequence (P51532 whole entry, the tested form may be a part): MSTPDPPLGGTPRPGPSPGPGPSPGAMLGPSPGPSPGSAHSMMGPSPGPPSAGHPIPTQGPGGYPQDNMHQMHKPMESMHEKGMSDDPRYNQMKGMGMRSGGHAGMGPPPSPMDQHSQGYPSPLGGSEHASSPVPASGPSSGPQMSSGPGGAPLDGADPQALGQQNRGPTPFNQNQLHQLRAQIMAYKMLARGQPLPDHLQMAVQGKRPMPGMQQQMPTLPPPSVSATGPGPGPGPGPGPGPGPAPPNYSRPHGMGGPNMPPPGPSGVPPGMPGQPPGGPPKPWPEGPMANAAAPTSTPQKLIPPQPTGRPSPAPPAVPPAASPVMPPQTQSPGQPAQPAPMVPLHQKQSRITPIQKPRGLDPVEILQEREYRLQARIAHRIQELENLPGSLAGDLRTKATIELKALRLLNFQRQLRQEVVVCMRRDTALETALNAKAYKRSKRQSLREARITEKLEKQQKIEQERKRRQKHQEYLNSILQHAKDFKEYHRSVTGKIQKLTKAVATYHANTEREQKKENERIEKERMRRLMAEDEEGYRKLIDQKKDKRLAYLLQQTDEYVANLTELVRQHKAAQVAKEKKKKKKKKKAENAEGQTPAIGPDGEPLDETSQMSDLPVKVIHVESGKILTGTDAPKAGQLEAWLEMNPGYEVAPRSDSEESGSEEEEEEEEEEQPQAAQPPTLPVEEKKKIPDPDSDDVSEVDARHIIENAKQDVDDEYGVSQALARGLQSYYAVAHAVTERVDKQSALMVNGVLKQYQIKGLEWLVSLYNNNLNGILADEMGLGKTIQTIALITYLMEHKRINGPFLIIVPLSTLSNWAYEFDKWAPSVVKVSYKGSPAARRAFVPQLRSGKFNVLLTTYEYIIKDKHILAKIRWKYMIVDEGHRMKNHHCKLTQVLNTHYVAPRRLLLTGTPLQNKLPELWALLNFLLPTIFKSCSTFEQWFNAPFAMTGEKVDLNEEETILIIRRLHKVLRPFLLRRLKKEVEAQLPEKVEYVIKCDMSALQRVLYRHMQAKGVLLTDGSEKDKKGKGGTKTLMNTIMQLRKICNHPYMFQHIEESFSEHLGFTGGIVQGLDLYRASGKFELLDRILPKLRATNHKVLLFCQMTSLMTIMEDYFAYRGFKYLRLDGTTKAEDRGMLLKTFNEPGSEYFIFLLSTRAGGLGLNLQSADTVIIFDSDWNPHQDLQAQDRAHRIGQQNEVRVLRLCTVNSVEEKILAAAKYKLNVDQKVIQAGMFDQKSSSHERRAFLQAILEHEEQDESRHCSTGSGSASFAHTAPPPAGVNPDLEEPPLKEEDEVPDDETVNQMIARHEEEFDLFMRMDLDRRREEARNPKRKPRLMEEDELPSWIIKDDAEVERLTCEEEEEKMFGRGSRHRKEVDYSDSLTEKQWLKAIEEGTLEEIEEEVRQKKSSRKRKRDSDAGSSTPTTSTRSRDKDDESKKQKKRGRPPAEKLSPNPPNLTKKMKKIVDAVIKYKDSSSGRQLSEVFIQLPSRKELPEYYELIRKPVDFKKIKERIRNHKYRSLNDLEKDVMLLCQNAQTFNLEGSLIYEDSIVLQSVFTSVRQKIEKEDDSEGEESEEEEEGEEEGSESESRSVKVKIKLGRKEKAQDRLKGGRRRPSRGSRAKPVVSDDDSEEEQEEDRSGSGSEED

[23] = molecular target: Transcription intermediary factor 1-alpha (Homo sapiens) (UniProt O15164); experiment: Inhibition of human partial length TRIM24 (P790 to P977 residues) expressed in Escherichia coli BL21 assessed as residual activity at 1 uM after 1 hr by qPCR method relative to control
[24] = molecular target: E3 ubiquitin-protein ligase TRIM33 (Homo sapiens) (UniProt Q9UPN9); experiment: Inhibition of human partial length TRIM33 (D882 to A1087 residues) expressed in Escherichia coli BL21 assessed as residual activity at 1 uM after 1 hr by qPCR method relative to control
[25] = molecular target: Bromodomain and WD repeat-containing protein 1 (Homo sapiens) (UniProt Q9NSI6); experiment: Inhibition of human partial length BRWD1 (A1310 to E1430 residues) expressed in Escherichia coli BL21 assessed as residual activity at 1 uM after 1 hr by qPCR method relative to control

Cc1ccc([C@H](C)Nc2ccc3c(c2)N(C2CC2)[C@H](C)C(=O)N3C)c(C)c1
inhibition [1]: Dose-dependent effect
inhibition [2]: > 60%
Cmax [3]: 869 ng/mL
AUC(0-t) [4]: 1680 ng·h/mL
AUC(0-inf) [5]: 1690 ng·h/mL
Activity [6]: 100%
Activity [7]: 100%
Activity [8]: 82%
Activity [9]: 0.9%
Activity [10]: 0%
Activity [11]: 0.1%
Activity [12]: 1.7%
Activity [13]: 0.05%
Activity [14]: 97%
Activity [15]: 0%
Activity (Peregrin (Homo sapiens)): 100%
Activity [16]: 100%
Activity [17]: 67%
Activity [18]: 47%
Activity [19]: 63%
Activity [20]: 100%
Activity [21]: 96%
Activity [22]: 95%
Activity [23]: 80%
Activity [24]: 99%
Activity [25]: 73%
